In PubChem BioAssay AID248 (DTP/NCI, 2004):
Several values for one entry are separate records, joined by “and”; a condition that tells them apart may be missing. Equal values may be shown once. Inconclusive results and toxic doses are left out.

System: L1210 leukemia ip in BDF1 mice, survival T/C
Assay: NCI In Vivo Anticancer Drug Screen. Data for tumor model L1210 Leukemia (intraperitoneal) in B6D2F1 (BDF1) mice
Settings: endpoint: mean survival time, higher = longer survival
Method in brief: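 Mice bearing the transplanted tumor received compound or vehicle. Survival of the treated group was divided by that of the vehicle-treated control group to give the ratio.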

## O=c1[nH]c(=O)n(C2CC(O)C(CO)O2)cc1C(F)(F)F (stereo unspecified)
dose: 0.16 mg/kg/injection, schedule: Q#B X045 (ip), vehicle: saline
  T/C: 109 % of control
dose: 0.33 mg/kg/injection, schedule: Q#B X045 (ip), vehicle: saline
  T/C: 119 % of control
dose: 0.56 mg/kg/injection, schedule: Q01DX Z (ip), vehicle: saline
  T/C: 112 % of control
dose: 0.66 mg/kg/injection, schedule: Q#B X045 (ip), vehicle: saline
  T/C: 122 % of control
dose: 1.12 mg/kg/injection, schedule: Q01DX Z (ip), vehicle: saline
  T/C: 106 % of control
dose: 1.5 mg/kg/injection, schedule: Q01DX Z (sc), vehicle: saline
  T/C: 112 % of control
dose: 2.25 mg/kg/injection, schedule: Q01DX Z (ip), vehicle: saline
  T/C: 118 % of control
dose: 3.0 mg/kg/injection, schedule: Q01DX Z (sc), vehicle: saline
  T/C: 114 % of control
dose: 3.12 mg/kg/injection, schedule: Q01DX Z (im), vehicle: saline
  T/C: 104 % of control
dose: 4.5 mg/kg/injection, schedule: Q01DX Z (ip), vehicle: saline
  T/C: 114 % of control
dose: 6.0 mg/kg/injection, schedule: Q01DX Z (sc), vehicle: saline
  T/C: 118 % of control
dose: 6.25 mg/kg/injection, schedule: Q01DX006 (iv), vehicle: saline
  T/C: 121 % of control
dose: 6.25 mg/kg/injection, schedule: Q01DX015 (ip), vehicle: saline
  T/C: 120 % of control
dose: 9.0 mg/kg/injection, schedule: Q01DX Z (ip), vehicle: saline
  T/C: 153 % of control
dose: 12.0 mg/kg/injection, schedule: Q01DX Z (sc), vehicle: saline
  T/C: 118 % of control
dose: 12.5 mg/kg/injection, schedule: Q01DX006 (iv), vehicle: saline
  T/C: 115 % of control
dose: 12.5 mg/kg/injection, schedule: Q01DX Z (oral), vehicle: saline
  T/C: 120 % of control
dose: 18.0 mg/kg/injection, schedule: Q01DX Z (ip), vehicle: saline
  T/C: 150 % of control
dose: 18.75 mg/kg/injection, schedule: Q#A X034 (ip), vehicle: water
  T/C: 122 % of control
dose: 20.0 mg/kg/injection, schedule: Q01DX009 (oral), vehicle: saline
  T/C: 116 % of control
dose: 20.0 mg/kg/injection, schedule: Q01DX Z (ip), vehicle: saline
  T/C: 119 % of control
dose: 25.0 mg/kg/injection, schedule: Q01DX015 (ip), vehicle: saline
  T/C: 152 % of control
dose: 25.0 mg/kg/injection, schedule: Q01DX Z (ip), vehicle: saline
  T/C: 160 % of control
dose: 25.0 mg/kg/injection, schedule: Q01DX Z (oral), vehicle: saline
  T/C: 120 % of control
dose: 38.0 mg/kg/injection, schedule: Q01DX Z (ip), vehicle: water
  T/C: 117 % of control
dose: 40.0 mg/kg/injection, schedule: Q01DX009 (oral), vehicle: saline
  T/C: 121 % of control
dose: 45.0 mg/kg/injection, schedule: Q01DX015 (oral), vehicle: saline
  T/C: 122 % of control
dose: 50.0 mg/kg/injection, schedule: Q01DX Z (ip), vehicle: saline
  T/C: 154 % of control
dose: 50.0 mg/kg/injection, schedule: Q01DX Z (sc), vehicle: saline
  T/C: 156 % of control
dose: 64.0 mg/kg/injection, schedule: Q01DX009 (ip), vehicle: water
  T/C: 156 % of control
dose: 65.0 mg/kg/injection, schedule: Q01DX015 (oral), vehicle: saline
  T/C: 104 % of control
dose: 65.0 mg/kg/injection, schedule: Q01DX Z (ip), vehicle: water
  T/C: 157 % of control
dose: 100.0 mg/kg/injection, schedule: Q01DX001 (ip), vehicle: saline
  T/C: 106 % of control and 107 % of control
dose: 100.0 mg/kg/injection, schedule: Q01DX015 (oral), vehicle: saline
  T/C: 120 % of control
dose: 100.0 mg/kg/injection, schedule: Q01DX Z (im), vehicle: saline
  T/C: 154 % of control
dose: 100.0 mg/kg/injection, schedule: Q## X001 (ip), vehicle: saline
  T/C: 103 % of control
dose: 107.0 mg/kg/injection, schedule: Q01DX Z (ip), vehicle: water
  T/C: 154 % of control
dose: 128.0 mg/kg/injection, schedule: Q01DX001 (oral), vehicle: saline
  T/C: 112 % of control
dose: 128.0 mg/kg/injection, schedule: Q01DX009 (ip), vehicle: water
  T/C: 151 % of control
dose: 128.0 mg/kg/injection, schedule: Q## X003 (oral), vehicle: saline
  T/C: 119 % of control
dose: 128.0 mg/kg/injection, schedule: Q## X024 (oral), vehicle: saline
  T/C: 115 % of control
dose: 150.0 mg/kg/injection, schedule: Q01DX Z (ip), vehicle: saline
  T/C: 159 % of control
dose: 150.0 mg/kg/injection, schedule: Q04DX005 (ip), vehicle: water
  T/C: 118 % of control
dose: 150.0 mg/kg/injection, schedule: Q#A X034 (ip), vehicle: water
  T/C: 124 % of control
dose: 180.0 mg/kg/injection, schedule: Q01DX Z (ip), vehicle: water
  T/C: 122 % of control
dose: 200.0 mg/kg/injection, schedule: Q01DX001 (ip), vehicle: saline
  T/C: 109 % of control
dose: 200.0 mg/kg/injection, schedule: Q01DX Z (sc), vehicle: saline
  T/C: 160 % of control
dose: 200.0 mg/kg/injection, schedule: Q## X001 (ip), vehicle: saline
  T/C: 111 % of control
dose: 250.0 mg/kg/injection, schedule: Q01DX001 (ip), vehicle: saline
  T/C: 112 % of control
dose: 250.0 mg/kg/injection, schedule: Q01DX Z (ip), vehicle: saline
  T/C: 157 % of control
dose: 251.0 mg/kg/injection, schedule: Q01DX Z (ip), vehicle: saline
  T/C: 108 % of control
dose: 256.0 mg/kg/injection, schedule: Q01DX001 (oral), vehicle: saline
  T/C: 112 % of control
dose: 256.0 mg/kg/injection, schedule: Q01DX009 (ip), vehicle: saline
  T/C: 150 % of control
dose: 256.0 mg/kg/injection, schedule: Q01DX009 (oral), vehicle: saline
  T/C: 157 % of control
dose: 256.0 mg/kg/injection, schedule: Q03HX016 (ip), vehicle: water
  T/C: 153 % of control
dose: 256.0 mg/kg/injection, schedule: Q04DX003 (ip), vehicle: water
  T/C: 116 % of control
dose: 300.0 mg/kg/injection, schedule: Q01DX001 (ip), vehicle: water
  T/C: 106 % of control
dose: 300.0 mg/kg/injection, schedule: Q01DX017 (ip), vehicle: water
  T/C: 119 % of control
dose: 300.0 mg/kg/injection, schedule: Q01DX Z (ip), vehicle: water
  T/C: 102 % of control
dose: 300.0 mg/kg/injection, schedule: Q01DX Z (oral), vehicle: saline
  T/C: 116 % of control
dose: 300.0 mg/kg/injection, schedule: Q03DX Z (ip), vehicle: saline
  T/C: 118 % of control
dose: 300.0 mg/kg/injection, schedule: Q04DX005 (ip), vehicle: water
  T/C: 123 % of control
dose: 320.0 mg/kg/injection, schedule: Q01DX015 (ip), vehicle: saline
  T/C: 98 % of control
dose: 350.0 mg/kg/injection, schedule: Q01DX Z (ip), vehicle: saline
  T/C: 111 % of control
dose: 351.0 mg/kg/injection, schedule: Q01DX Z (ip), vehicle: saline
  T/C: 114 % of control
dose: 400.0 mg/kg/injection, schedule: Q01DX001 (ip), vehicle: saline
  T/C: 98 % of control and 113 % of control
dose: 400.0 mg/kg/injection, schedule: Q01DX Z (im), vehicle: saline
  T/C: 159 % of control
dose: 400.0 mg/kg/injection, schedule: Q## X001 (ip), vehicle: saline
  T/C: 116 % of control
dose: 480.0 mg/kg/injection, schedule: Q01DX015 (ip), vehicle: saline
  T/C: 98 % of control
dose: 500.0 mg/kg/injection, schedule: Q01DX001 (ip), vehicle: saline
  T/C: 112 % of control
dose: 512.0 mg/kg/injection, schedule: Q01DX001 (oral), vehicle: saline
  T/C: 112 % of control
dose: 512.0 mg/kg/injection, schedule: Q01DX009 (ip), vehicle: saline
  T/C: 117 % of control
dose: 512.0 mg/kg/injection, schedule: Q04DX003 (ip), vehicle: water
  T/C: 120 % of control
dose: 512.0 mg/kg/injection, schedule: Q## X008 (oral), vehicle: saline
  T/C: 121 % of control
dose: 600.0 mg/kg/injection, schedule: Q01DX001 (ip), vehicle: water
  T/C: 107 % of control
dose: 600.0 mg/kg/injection, schedule: Q01DX Z (oral), vehicle: saline
  T/C: 106 % of control
dose: 600.0 mg/kg/injection, schedule: Q02DX009 (ip), vehicle: water
  T/C: 159 % of control
dose: 600.0 mg/kg/injection, schedule: Q04DX005 (ip), vehicle: water
  T/C: 119 % of control
dose: 800.0 mg/kg/injection, schedule: Q01DX001 (ip), vehicle: saline
  T/C: 107 % of control and 116 % of control
dose: 800.0 mg/kg/injection, schedule: Q01DX006 (iv), vehicle: saline
  T/C: 154 % of control
dose: 800.0 mg/kg/injection, schedule: Q01DX Z (ip), vehicle: saline
  T/C: 124 % of control
dose: 800.0 mg/kg/injection, schedule: Q01DX Z (oral), vehicle: saline
  T/C: 110 % of control
dose: 800.0 mg/kg/injection, schedule: Q## X001 (ip), vehicle: saline
  T/C: 121 % of control
dose: 1000.0 mg/kg/injection, schedule: Q01DX001 (ip), vehicle: saline
  T/C: 123 % of control
dose: 1024.0 mg/kg/injection, schedule: Q01DX001 (oral), vehicle: saline
  T/C: 121 % of control
dose: 1024.0 mg/kg/injection, schedule: Q01DX009 (oral), vehicle: saline
  T/C: 101 % of control
dose: 1024.0 mg/kg/injection, schedule: Q## X003 (oral), vehicle: saline
  T/C: 156 % of control
dose: 1200.0 mg/kg/injection, schedule: Q01DX001 (ip), vehicle: water
  T/C: 104 % of control
dose: 1200.0 mg/kg/injection, schedule: Q01DX Z (im), vehicle: saline
  T/C: 121 % of control
dose: 1200.0 mg/kg/injection, schedule: Q01DX Z (sc), vehicle: saline
  T/C: 115 % of control
dose: 1200.0 mg/kg/injection, schedule: Q04DX005 (ip), vehicle: water
  T/C: 119 % of control
dose: 1600.0 mg/kg/injection, schedule: Q01DX Z (im), vehicle: saline
  T/C: 113 % of control
dose: 1600.0 mg/kg/injection, schedule: Q01DX Z (oral), vehicle: saline
  T/C: 97 % of control
dose: 1600.0 mg/kg/injection, schedule: Q01DX Z (sc), vehicle: saline
  T/C: 107 % of control
dose: 2400.0 mg/kg/injection, schedule: Q01DX001 (ip), vehicle: water
  T/C: 104 % of control
dose: 4096.0 mg/kg/injection, schedule: Q## X008 (oral), vehicle: saline
  T/C: 151 % of control
